Among the test systems are A549; HL-60; HOP-62; M14; MDA-MB-231; MDA-MB-435; MOLT-4; Malme-3M; NCI-H522; NCI/ADR-RES; OVCAR-4; SF-295; SK-MEL-28; SK-MEL-5; SNB-75; SW-620; T47D; TK-10; U-251; UACC-257.
Holding throughout (assay): DTP human tumour cell line panel, 48 h

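A five-concentration, 48-hour dose response in 96-well plates underlies each endpoint, interpolated linearly between surrounding concentrations. At the GI50, growth is halved.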 The source made the active and inactive calls. No stated cut-off is given here; in the data, active = GI50 up to about 1.1 µM and inactive = higher.

Consider `CCOC(=O)C1=NN(c2ccc(C)cc2)C2(c3ccccc3)C=C(c3ccccc3)N(C)CCN12` (centres undefined), for which the GI50 (usually the concentration that inhibits growth by half) with A549 was > 100 µM (inactive); with HL-60, 30.7 µM (inactive); in the experiment with HOP-62, > 100 µM (inactive); in the experiment with M14, > 100 µM (inactive); with MDA-MB-231, > 100 µM (inactive); with MDA-MB-435, > 100 µM (inactive). The GI50 in the experiment on MOLT-4, in the experiment with Malme-3M, with NCI-H522, in the experiment with NCI/ADR-RES, in the experiment on OVCAR-4 and in the experiment on SF-295 was > 100 µM (inactive) each time. In addition, the GI50 in the experiment on SK-MEL-28, in the experiment with SK-MEL-5, in the experiment on SNB-75, in the experiment with SW-620, in the experiment with T47D and in the experiment with TK-10 was > 100 µM (inactive) each time. Besides, the figures for the GI50 in the experiment on U-251 and with UACC-257 were > 100 µM (inactive) and 62.4 µM (inactive), respectively.
Take `Clc1ccc(CCNC2(c3cc4ccccc4s3)CCCCC2)cc1Cl`: the GI50 is 47.8 µM (inactive) with A549; 16.7 µM (inactive) with HL-60; 28.2 µM (inactive) in the experiment with HOP-62; 23.8 µM (inactive) with M14; 21.1 µM (inactive) in the experiment with MDA-MB-231; 41.4 µM (inactive) in the experiment on MDA-MB-435. For the same compound, the GI50 was 13.8 µM (inactive) in the experiment on MOLT-4; 19.5 µM (inactive) with Malme-3M; 17.5 µM (inactive) in the experiment with NCI-H522; 24 µM (inactive) with NCI/ADR-RES; 33.3 µM (inactive) in the experiment on OVCAR-4; 28.7 µM (inactive) with SF-295. The GI50 in the experiment on SK-MEL-28 is 25.2 µM (inactive); in the experiment on SK-MEL-5, 15.6 µM (inactive); with SNB-75, 14.2 µM (inactive); in the experiment with SW-620, 34.7 µM (inactive); with T47D, 20.2 µM (inactive); with TK-10 it was 20.8 µM (inactive). The GI50 in the experiment with U-251 was 23.9 µM (inactive); in the experiment with UACC-257, 19 µM (inactive).
For `COc1ccc(/N=C/C=C/Nc2ccc(OC)cc2)cc1`, the GI50 with A549 is 12.1 µM (inactive); in the experiment with HL-60, 2.87 µM (inactive); in the experiment on HOP-62, 5.78 µM (inactive); in the experiment on M14, 11 µM (inactive); with MDA-MB-231, 2.38 µM (inactive); in the experiment with MDA-MB-435, 9.27 µM (inactive). The GI50 was 4.51 µM (inactive) in the experiment on MOLT-4; 11.4 µM (inactive) in the experiment with Malme-3M; 5.42 µM (inactive) in the experiment with NCI-H522; 6.95 µM (inactive) with NCI/ADR-RES; 5.24 µM (inactive) in the experiment with OVCAR-4; 7.98 µM (inactive) in the experiment with SF-295. In addition, the GI50 in the experiment with SK-MEL-28 is 15.2 µM (inactive); with SK-MEL-5, 4.66 µM (inactive); in the experiment on SNB-75, 16.9 µM (inactive); in the experiment on SW-620, 2.69 µM (inactive); with T47D, 15 µM (inactive); in the experiment with TK-10 it was 11.8 µM (inactive). Moreover, the GI50 with U-251 is 5.35 µM (inactive); with UACC-257, 7.35 µM (inactive).
Turning to `CCN(CC)CCCNc1c2cc(OC)ccc2nc2cccc([N+](=O)[O-])c12`, the GI50 in the experiment on A549 is 0.065 µM (active); in the experiment on HL-60, 0.158 µM (active); in the experiment with HOP-62, 0.156 µM (active); in the experiment on M14 it was 0.0938 µM (active); in the experiment with MDA-MB-231, 0.122 µM (active); in the experiment on MDA-MB-435, 0.0995 µM (active). The GI50 in the experiment with MOLT-4 was 0.0274 µM (active); in the experiment on Malme-3M it was 0.118 µM (active); in the experiment on NCI-H522, 0.00658 µM (active); with NCI/ADR-RES it was 0.274 µM (active); with OVCAR-4, 0.0261 µM (active); with SF-295, 0.147 µM (active). Further, the GI50 in the experiment on SK-MEL-28 is 0.231 µM (active); with SK-MEL-5 it was 0.0935 µM (active); in the experiment on SNB-75, 0.151 µM (active); with SW-620, 0.0352 µM (active); in the experiment on T47D, 0.151 µM (active); in the experiment on TK-10 it was 0.195 µM (active). In addition, the GI50 is 0.082 µM (active) with U-251 and 0.227 µM (active) in the experiment on UACC-257.
For `O=C(NCCCCCCNC(=O)n1cc(F)c(=O)[nH]c1=O)NCCCOCCOCCOCCOCCOCCOCCOCCOCCOCCOCCOCCOCCOCCOCCOCCOCCOCCOCCOCCOCCOCCCNC(=O)C(O)C(O)C(O)C(O)CO` (centres undefined), the GI50 was 6.52 µM (inactive) in the experiment with A549; 20.8 µM (inactive) with HL-60; 33.5 µM (inactive) in the experiment on HOP-62; 75.3 µM (inactive) in the experiment on M14; > 100 µM (inactive) with MDA-MB-231; 55.1 µM (inactive) in the experiment with MDA-MB-435. Also, the GI50 is 33.9 µM (inactive) with MOLT-4; 20.2 µM (inactive) in the experiment on Malme-3M; > 90.2 µM (inactive) in the experiment on NCI-H522; 69.8 µM (inactive) in the experiment with NCI/ADR-RES; > 100 µM (inactive) in the experiment on OVCAR-4; 48.9 µM (inactive) in the experiment on SF-295. The GI50 in the experiment on SK-MEL-28 was 16.3 µM (inactive); with SK-MEL-5, 51.9 µM (inactive); with SNB-75 it was 73.1 µM (inactive); in the experiment on SW-620, 53.8 µM (inactive); in the experiment on T47D, > 100 µM (inactive); in the experiment on TK-10, 15.6 µM (inactive). The GI50 in the experiment on U-251 is 70.6 µM (inactive); in the experiment on UACC-257 it was > 90.2 µM (inactive).
Turning to `CCOC(=O)/C=C(/N=P(c1ccccc1)(c1ccccc1)c1ccccc1)C(F)(F)F`, the GI50 in the experiment with A549, in the experiment with HL-60, with HOP-62, with M14, with MDA-MB-231 and in the experiment on MDA-MB-435 was > 10 µM (inactive) throughout. Besides, the GI50 in the experiment with MOLT-4 is > 10 µM (inactive); with Malme-3M, > 10 µM (inactive); in the experiment on NCI-H522, 61.9 µM (inactive); in the experiment with NCI/ADR-RES, > 10 µM (inactive); in the experiment on OVCAR-4, > 10 µM (inactive); in the experiment with SF-295, > 10 µM (inactive). For the same compound, the GI50 with SK-MEL-28 is > 10 µM (inactive); in the experiment on SK-MEL-5, > 10 µM (inactive); in the experiment with SNB-75, > 10 µM (inactive); with T47D, 22.1 µM (inactive); with TK-10, > 10 µM (inactive); with UACC-257, > 10 µM (inactive).
For the compound `S=C=Nc1ccc(CSc2nc3ccccc3[nH]2)cc1`, the GI50 with A549 is 17.1 µM (inactive); with HL-60, 36.5 µM (inactive); with HOP-62 it was 17.5 µM (inactive); in the experiment on MDA-MB-231, 23.3 µM (inactive); in the experiment on MDA-MB-435 it was 17.5 µM (inactive); with MOLT-4, 23.7 µM (inactive). Also, the GI50 in the experiment with Malme-3M was 17.6 µM (inactive); with NCI-H522 it was 4.25 µM (inactive); in the experiment with NCI/ADR-RES, 18 µM (inactive); in the experiment on OVCAR-4, 17.3 µM (inactive); in the experiment on SF-295, 17.3 µM (inactive); in the experiment with SK-MEL-28, 18.7 µM (inactive). Also, the GI50 in the experiment with SK-MEL-5 is 15.9 µM (inactive); in the experiment with SNB-75 it was 12.9 µM (inactive); in the experiment on SW-620, 17.3 µM (inactive); in the experiment with T47D, 15.2 µM (inactive); in the experiment with TK-10, 20.1 µM (inactive); with U-251 it was 17.1 µM (inactive). In the experiment on UACC-257, the GI50 was 19.3 µM (inactive).
For `O=C(O)c1ccc(CI)cc1`, the GI50 in the experiment on A549 was 17.6 µM (inactive); in the experiment with HL-60, 20.8 µM (inactive); in the experiment with HOP-62 it was 20.3 µM (inactive); in the experiment with M14, 17.4 µM (inactive); with MDA-MB-231, 21.8 µM (inactive); with MDA-MB-435 it was 17.4 µM (inactive). Also, the GI50 in the experiment with MOLT-4 is 15.3 µM (inactive); in the experiment with Malme-3M, 10.6 µM (inactive); with NCI-H522, 3.9 µM (inactive); in the experiment with NCI/ADR-RES it was 16.1 µM (inactive); in the experiment with OVCAR-4, 14.3 µM (inactive); in the experiment with SF-295, 7.82 µM (inactive). Moreover, the GI50 in the experiment on SK-MEL-28 was 14.3 µM (inactive); in the experiment on SK-MEL-5, 17 µM (inactive); in the experiment on SNB-75 it was 33.2 µM (inactive); with SW-620 it was 14.6 µM (inactive); in the experiment with T47D, 25 µM (inactive); in the experiment with U-251, 7.85 µM (inactive). For the same compound, in the experiment with UACC-257, the GI50 was 19.3 µM (inactive).
As to `[O-][n+]1onc2c1/C(=N/O)CCC2`, the GI50 in the experiment on A549, in the experiment with HL-60, in the experiment with HOP-62, in the experiment with M14, in the experiment with MDA-MB-231 and in the experiment on MDA-MB-435 was > 100 µM (inactive) throughout. Moreover, the GI50 with MOLT-4, in the experiment on Malme-3M, with NCI-H522, in the experiment on NCI/ADR-RES, with OVCAR-4 and in the experiment on SF-295 was > 100 µM (inactive) in each case. In addition, the GI50 with SK-MEL-28, in the experiment with SK-MEL-5, with SNB-75, in the experiment with SW-620, with T47D and in the experiment with TK-10 was > 100 µM (inactive) in each case. The GI50 in the experiment with UACC-257 was > 100 µM (inactive).
For `O=C1CS(=O)(=O)C(c2cccc(Oc3ccccc3)c2)N1C1CC1` (centres undefined), the GI50 with A549 was 35.6 µM (inactive); in the experiment with HL-60, 30.8 µM (inactive); in the experiment with M14 it was 41.1 µM (inactive); with MDA-MB-231 it was 75.2 µM (inactive); in the experiment with MDA-MB-435, 26.2 µM (inactive); with MOLT-4, 30.4 µM (inactive). Moreover, the GI50 is > 100 µM (inactive) with Malme-3M; 38.7 µM (inactive) in the experiment on NCI-H522; 28.1 µM (inactive) with NCI/ADR-RES; 29.2 µM (inactive) with OVCAR-4; 36.6 µM (inactive) in the experiment with SF-295; 90.6 µM (inactive) in the experiment with SK-MEL-28. For the same compound, the GI50 in the experiment with SK-MEL-5 is 18.9 µM (inactive); in the experiment on SNB-75, 24.8 µM (inactive); in the experiment with SW-620, 60.5 µM (inactive); in the experiment on T47D, 35 µM (inactive); in the experiment with TK-10, 44.7 µM (inactive); in the experiment on U-251 it was 32.5 µM (inactive). For the same compound, the GI50 in the experiment with UACC-257 is 33.2 µM (inactive).

(Values after ChEMBL document CHEMBL1201862, “PubChem BioAssay data set” (2004).)
